Results as given in patent US12649727B2, “EFGR inhibitor, preparation method therefor and application thereof” (Abbisko Therapeutics Co., Ltd, priority 2020, dated 2026).

Tests used:
Assay type in all cases: cell-based
A431 (EGFR-WT) = assay: Proliferation experiment, A431 cell line (CellTiter-Glo); settings: Homo sapiens, A-431; A431 cells, cultured for 72 hrs with compound, CTG analysis
Description: [The procedure below names another cell line; the source lists this cell line under the same test.] (§1) Proliferation Experiment of Ba/F3 Cell Line
(§2) (I) Reagents and Materials
(§3) • Fetal bovine serum FBS (GBICO, Cat #10099-141); • CellTiter-Glo® luminescent cell viability assay kit (Promega, Cat #G7572); • Black transparent flat-bottom 96 well plate (Corning®, Cat #3603). (II) Instruments • SpectraMax multi-label microplate reader MD, 2104-0010A; • Carbon dioxide incubator, Thermo Scientific 3100 series; • Biological safety cabinet, Thermo Scientific, 1300 series model A2; • Inverted microscope, Olympus, CKX41SF; • Siemens refrigerator KK25E76TI. (III) Cell Lines and Culture Conditions
(§4) (IV) Experimental Procedures 1. Cell Culture and Inoculation: • (1) Cells in the logarithmic growth phase were harvested and counted using a […]. Cell viability was detected by Trypan Blue Dye Exclusion Method to ensure cell viability above 90%. • (2) The cell concentration was adjusted to reach a desired final density; 90 μL of cell suspension was added to the 96-well plate. • (3) The cells were incubated overnight in the 96-well plate at 37° C., 5% CO2 and at 95% humidity.
(§5) 2. T0 Reference Data: • (1) 10 μL PBS was added to each well of the TO plate containing the cells. • (2) The CTG reagent was thawed and the cell plate was equilibrated to room temperature for 30 min. • (3) An equal volume of CTG solution was added to each well. • (4) The cells were lysed by shaking on an orbital shaker for 5 min. • (5) The cell plate was left at room temperature for 20 min to stabilize the luminescence signal. • (6) The fluorescence signal values of TO were read. 3. Dilution and Addition of Compounds • (1) According to the compound information table, a corresponding volume of DMSO was added to the corresponding compound powder to prepare a 10 mM stock solution. • (2) A 1000-fold, 3.16-fold-diluted compound solution was prepared. • (3) The 1000× diluted compound solution was diluted 100-fold with PBS to prepare a 10-fold compound solution with a maximum concentration of […], including 9 concentrations, with 3.16-fold dilution, and 10 μL of the medicament solution was added to each well of the 96-well plate to seed the cells. Triplicate wells were set for each compound concentration, with a final concentration of DMSO being 0.1%. • (4) The cells were placed in the 96-well plate filled with the medicament at 37° C., 5% CO2 and at 95% humidity, and cultured for 72 hrs before CTG analysis. 4. Fluorescence Signal Reading • (1) The CTG reagent was thawed and the cell plate was equilibrated to room temperature for 30 min. • (2) An equal volume of CTG solution was added to each well. • (3) The cells were lysed by shaking on an orbital shaker for 5 min. • (4) The cell plate was left at room temperature for 20 min to stabilize the fluorescence signal. • (5) The fluorescence values were read. 5. Data Processing
(§6) Data were analyzed using GraphPad Prism 7.0 software and fitted data were regressed using non-linear S-curves to obtain dose-response curves from which IC50 values (in nM) were calculated.

[1] = molecular target: Ba/F3 EGFR-D770-N771ins_SVD (Homo sapiens, UniProt P00533, DUP768-770, cells depend on it); assay: Proliferation experiment of Ba/F3 cell line, EGFR-D770-N771ins_SVD (CellTiter-Glo); settings: cultured for 72 hrs with compound, CTG analysis, read-out: Ba/F3 EGFR-D770-N771ins_SVD IC50
Description: as §1, §2, §3, §4, §5, §6

[2] = molecular target: Ba/F3 EGFR-V769_D770insASV (Homo sapiens, UniProt P00533, DUP767-769, cells depend on it); assay: Proliferation experiment of Ba/F3 cell line, EGFR-V769_D770insASV (CellTiter-Glo); settings: cultured for 72 hrs with compound, CTG analysis, read-out: Ba/F3 EGFR-V769_D770insASV IC50
Description: as §1, §2, §3, §4, §5, §6

Ba/F3 EGFR-D770-N771ins_SVD, sequence (P00533 with tags, fused parts or gaps DUP768-770): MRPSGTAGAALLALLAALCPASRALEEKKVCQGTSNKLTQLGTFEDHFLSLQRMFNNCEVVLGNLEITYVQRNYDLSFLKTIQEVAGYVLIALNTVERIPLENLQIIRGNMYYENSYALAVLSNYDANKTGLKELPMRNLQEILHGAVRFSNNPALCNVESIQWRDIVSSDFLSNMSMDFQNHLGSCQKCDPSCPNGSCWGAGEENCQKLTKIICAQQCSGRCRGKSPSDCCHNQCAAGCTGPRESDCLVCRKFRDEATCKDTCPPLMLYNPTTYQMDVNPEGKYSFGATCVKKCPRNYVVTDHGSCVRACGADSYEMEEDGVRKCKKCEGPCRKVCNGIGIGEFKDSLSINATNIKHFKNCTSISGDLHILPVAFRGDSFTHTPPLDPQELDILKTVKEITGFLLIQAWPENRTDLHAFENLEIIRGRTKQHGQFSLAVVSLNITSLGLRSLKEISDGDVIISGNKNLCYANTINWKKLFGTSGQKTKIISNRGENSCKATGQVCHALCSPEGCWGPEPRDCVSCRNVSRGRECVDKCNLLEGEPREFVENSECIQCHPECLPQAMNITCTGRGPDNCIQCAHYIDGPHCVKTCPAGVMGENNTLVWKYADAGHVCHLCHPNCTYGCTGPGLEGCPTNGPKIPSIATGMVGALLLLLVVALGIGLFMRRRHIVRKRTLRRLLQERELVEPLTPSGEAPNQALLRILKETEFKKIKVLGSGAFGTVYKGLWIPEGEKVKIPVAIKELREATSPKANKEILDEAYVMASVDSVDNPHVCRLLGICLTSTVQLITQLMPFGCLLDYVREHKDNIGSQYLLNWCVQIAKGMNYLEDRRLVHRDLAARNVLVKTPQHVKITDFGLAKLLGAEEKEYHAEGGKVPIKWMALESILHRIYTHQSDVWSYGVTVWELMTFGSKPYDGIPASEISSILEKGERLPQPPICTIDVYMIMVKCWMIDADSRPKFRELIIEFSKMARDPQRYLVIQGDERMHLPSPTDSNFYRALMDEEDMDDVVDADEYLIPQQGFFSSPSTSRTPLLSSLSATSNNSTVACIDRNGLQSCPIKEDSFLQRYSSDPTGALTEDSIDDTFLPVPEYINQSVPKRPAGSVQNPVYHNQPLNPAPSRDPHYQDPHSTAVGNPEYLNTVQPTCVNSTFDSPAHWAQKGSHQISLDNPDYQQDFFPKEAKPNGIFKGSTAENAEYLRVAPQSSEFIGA
Ba/F3 EGFR-V769_D770insASV, sequence (P00533 with tags, fused parts or gaps DUP767-769): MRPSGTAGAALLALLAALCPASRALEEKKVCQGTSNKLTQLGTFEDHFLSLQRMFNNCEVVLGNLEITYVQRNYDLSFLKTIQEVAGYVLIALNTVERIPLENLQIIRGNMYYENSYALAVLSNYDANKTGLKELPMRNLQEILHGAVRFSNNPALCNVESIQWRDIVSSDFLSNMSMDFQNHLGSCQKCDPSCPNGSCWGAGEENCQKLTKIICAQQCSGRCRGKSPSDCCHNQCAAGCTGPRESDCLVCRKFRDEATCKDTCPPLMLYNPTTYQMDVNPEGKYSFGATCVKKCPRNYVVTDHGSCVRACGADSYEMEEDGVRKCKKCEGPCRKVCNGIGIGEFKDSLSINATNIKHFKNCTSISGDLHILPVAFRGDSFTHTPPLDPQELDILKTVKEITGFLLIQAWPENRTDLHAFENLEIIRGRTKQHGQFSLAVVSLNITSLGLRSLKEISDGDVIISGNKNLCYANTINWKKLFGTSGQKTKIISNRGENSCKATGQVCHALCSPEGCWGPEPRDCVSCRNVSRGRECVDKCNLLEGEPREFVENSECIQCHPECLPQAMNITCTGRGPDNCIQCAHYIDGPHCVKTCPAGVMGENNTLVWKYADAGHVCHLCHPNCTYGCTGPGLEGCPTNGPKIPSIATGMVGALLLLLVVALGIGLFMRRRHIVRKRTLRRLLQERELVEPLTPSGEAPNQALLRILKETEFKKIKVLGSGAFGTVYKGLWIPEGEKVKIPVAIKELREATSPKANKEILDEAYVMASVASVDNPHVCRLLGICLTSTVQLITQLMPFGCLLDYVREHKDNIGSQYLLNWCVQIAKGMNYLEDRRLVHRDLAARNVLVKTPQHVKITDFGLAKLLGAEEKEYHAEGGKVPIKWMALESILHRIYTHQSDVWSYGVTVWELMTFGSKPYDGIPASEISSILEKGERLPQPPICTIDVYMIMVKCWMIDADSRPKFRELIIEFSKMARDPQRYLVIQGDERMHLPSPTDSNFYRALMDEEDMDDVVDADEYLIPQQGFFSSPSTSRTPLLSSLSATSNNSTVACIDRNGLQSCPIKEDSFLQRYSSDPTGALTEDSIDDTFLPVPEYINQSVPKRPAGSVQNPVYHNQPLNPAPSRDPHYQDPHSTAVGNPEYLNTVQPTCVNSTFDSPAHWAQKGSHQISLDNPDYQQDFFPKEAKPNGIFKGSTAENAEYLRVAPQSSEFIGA

Compound	IC50 (A431 (EGFR-WT))	GI50 [1]	GI50 [2]
C=CC(=O)Nc1cc2c(Nc3ccnc(-c4ccccc4F)c3)ncnc2cc1OCC(F)(F)F [Example 84, N-(4-((2-(2-fluorophenyl)pyridin-4-yl)amino)-7-(2,2,2-trifluoroethoxy)quinazolin-6-yl)acrylamide]	1780 nM	–	3.2 nM
C=C(F)C(=O)Nc1cc2c(Nc3ccnc(-c4ccccc4F)c3)ncnc2cc1N1CCC(F)(F)C1 [Example 108, N-(7-(3,3-difluoropyrrolidin-1-yl)-4-((2-(2-fluorophenyl)pyridin-4-yl)amino)quinazolin-6-yl)-2-fluoroacrylamide]	–	–	29.9 nM
C=CC(=O)Nc1cc2c(Nc3ccnc(-c4ccccc4F)c3)ncnc2cc1O[C@@H]1CCN(C2CCOCC2)C1 [Example 117, (R)-N-(4-((2-(2-fluorophenyl)pyridin-4-yl)amino)-7-((1-(tetrahydro-2H-pyran-4-yl)pyrrolidin-3-yl)oxy)quinazolin-6-yl)acrylamide]	988 nM	–	2.9 nM
C=C(F)C(=O)Nc1cc2c(Nc3ccnc(-c4ccccc4F)c3)ncnc2cc1N1CC(F)(F)C1 [Example 107, N-(7-(3,3-difluoroazetidin-1-yl)-4-((2-(2-fluorophenyl)pyridin-4-yl)amino)quinazolin-6-yl)-2-fluoroacrylamide]	2500 nM	18.3 nM	–
C=CC(=O)Nc1cc2c(Nc3ccnc(-c4ccccc4F)c3)ncnc2cc1OCCOC [Example 85, N-(4-((2-(2-fluorophenyl)pyridin-4-yl)amino)-7-(2-methoxyethoxy)quinazolin-6-yl)acrylamide]	1530 nM	–	3 nM
C=CC(=O)Nc1cc2c(Nc3cc(-c4ccc(F)cn4)ccc3F)ncnc2cc1OCCCN1CCOCC1 [Example 23, N-(4-((2-fluoro-5-(5-fluoropyridin-2-yl)phenyl)amino)-7-(3-morpholinopropoxy)quinazolin-6-yl)acrylamide]	–	261 nM	–
C=CC(=O)Nc1cc2c(Nc3cc(-c4ncc(F)cc4F)ccc3F)ncnc2cc1OCCCN1CCOCC1 [Example 2, N-(4-((5-(3,5-difluoropyridin-2-yl)-2-fluorophenyl)amino)-7-(3-morpholinopropoxy)quinazolin-6-yl)acrylamide]	–	121 nM	–
C=C(F)C(=O)Nc1cc2c(Nc3ccnc(-c4ccccc4F)c3)ncnc2cc1N1CC(OC)C1 [Example 104, 2-fluoro-N-(4-((2-(2-fluorophenyl)pyridin-4-yl)amino)-7-(3-methoxyazetidin-1-yl)quinazolin-6-yl)acrylamide]	1190 nM	–	30 nM
C=CC(=O)Nc1cc2c(Nc3cc(-c4ncc(F)cc4F)ccc3F)ncnc2cc1OCCN1CCOCC1 [Example 18, N-(4-((5-(3,5-difluoropyridin-2-yl)-2-fluorophenyl)amino)-7-(2-morpholinoethoxy)quinazolin-6-yl)acrylamide]	–	129 nM	–
C=C(F)C(=O)Nc1cc2c(Nc3ccnc(-c4ccccc4F)c3)ncnc2cc1N1CC(F)C1 [Example 106, 2-fluoro-N-(7-(3-fluoroazetidin-1-yl)-4-((2-(2-fluorophenyl)pyridin-4-yl)amino)quinazolin-6-yl)acrylamide]	1640 nM	–	40.9 nM

Next, values leading:

IC50 (A431 (EGFR-WT))	GI50 [1]	GI50 [2]	Compound
378 nM	46.2 nM	–	C=CC(=O)Nc1cc2c(Nc3cccc(-c4c(F)cc(F)cc4F)c3)ncnc2cc1OCCN1CCOCC1 [Example 24, N-(7-(2-morpholinoethoxy)-4-((2′,4′,6′-trifluoro-[1,1′-biphenyl]-3-yl)amino)quinazolin-6-yl)acrylamide]
703 nM	–	52.6 nM	C=C(F)C(=O)Nc1cc2c(Nc3ccnc(-c4ccccc4F)c3)ncnc2cc1N1CCC(F)(F)CC1 [Example 110, N-(7-(4,4-difluoropiperidin-1-yl)-4-((2-(2-fluorophenyl)pyridin-4-yl)amino)quinazolin-6-yl)-2-fluoroacrylamide]
625 nM	28.7 nM	–	C=CC(=O)Nc1cc2c(Nc3cc(-c4ccc(F)cc4F)ccc3F)ncnc2cc1OCCN1CCOCC1 [Example 10, N-(7-(2-morpholinoethoxy)-4-((2′,4,4′-trifluoro-[1,1′-biphenyl]-3-yl)amino)quinazolin-6-yl)acrylamide]
6 nM	–	7.1 nM	C=C(F)C(=O)Nc1cc2c(Nc3ccnc(-c4ccccc4F)c3)ncnc2cc1O[C@@H]1CCN(C2CCN(C)CC2)C1 [Example 120, (R)-2-fluoro-N-(4-((2-(2-fluorophenyl)pyridin-4-yl)amino)-7-((1-(1-methylpiperidin-4-yl)pyrrolidin-3-yl)oxy)quinazolin-6-yl)acrylamide]
159 nM	–	25.8 nM	C=C(F)C(=O)Nc1cc2c(Nc3ccnc(-c4ccccc4F)c3)ncnc2cc1N1CCC(F)CC1 [Example 109, 2-fluoro-N-(4-((2-(2-fluorophenyl)pyridin-4-yl)amino)-7-(4-fluoropiperidin-1-yl)quinazolin-6-yl)acrylamide]
625 nM	40.1 nM	–	C=CC(=O)Nc1cc2c(Nc3cccc(-c4ccc(F)cc4F)c3)ncnc2cc1C#CC(C)(C)N(C)C [Example 9, N-(4-((2′,4′-difluoro-[1,1′-biphenyl]-3-yl)amino)-7-(3-(dimethylamino)-3-methylbut-1-yn-1-yl)quinazolin-6-yl)acrylamide]
625 nM	105 nM	–	C=CC(=O)Nc1cc2c(Nc3cccc(-c4ccc(F)cn4)c3)ncnc2cc1OCCCN1CCOCC1 [Example 13, N-(4-((3-(5-fluoropyridin-2-yl)phenyl)amino)-7-(3-morpholinopropoxy)quinazolin-6-yl)acrylamide]
372 nM	34 nM	–	C=CC(=O)Nc1cc2c(Nc3cccc(-c4ncc(F)cc4F)c3)ncnc2cc1OCCN1CCOCC1 [Example 16, N-(4-((3-(3,5-difluoropyridin-2-yl)phenyl)amino)-7-(2-morpholinoethoxy)quinazolin-6-yl)acrylamide]
10.2 nM	–	3.4 nM	C=C(F)C(=O)Nc1cc2c(Nc3ccnc(-c4ccccc4F)c3)ncnc2cc1O[C@@H]1CCN(C2CN(C)C2)C1 [Example 119, (R)-2-fluoro-N-(4-((2-(2-fluorophenyl)pyridin-4-yl)amino)-7-((1-(1-methylazetidin-3-yl)pyrrolidin-3-yl)oxy)quinazolin-6-yl)acrylamide]
23.2 nM	–	7.6 nM	C=CC(=O)Nc1cc2c(Nc3ccnc(-c4ccccc4F)c3)ncnc2cc1O[C@@H]1CCN(C2CN(C)C2)C1 [Example 115, (R)-N-(4-((2-(2-fluorophenyl)pyridin-4-yl)amino)-7-((1-(1-methylazetidin-3-yl)pyrrolidin-3-yl)oxy)quinazolin-6-yl)acrylamide]
112 nM	–	12.8 nM	C=C(F)C(=O)Nc1cc2c(Nc3ccnc(-c4ccccc4F)c3)ncnc2cc1OCCOC [Example 89, 2-fluoro-N-(4-((2-(2-fluorophenyl)pyridin-4-yl)amino)-7-(2-methoxyethoxy)quinazolin-6-yl)acrylamide]
240 nM	–	20.8 nM	C=C(F)C(=O)Nc1cc2c(Nc3ccnc(-c4ccccc4F)c3)ncnc2cc1N1CCN(C)CC1 [Example 101, 2-fluoro-N-(4-((2-(2-fluorophenyl)pyridin-4-yl)amino)-7-(4-methylpiperazin-1-yl)quinazolin-6-yl)acrylamide]
624 nM	32.3 nM	–	C=CC(=O)Nc1cc2c(Nc3cccc(-c4ccc(F)cc4F)c3)ncnc2cc1C#CC(C)(C)N1CCN(C)CC1 [Example 12, N-(4-((2′,4′-difluoro-[1,1′-biphenyl]-3-yl)amino)-7-(3-methyl-3-(4-methylpiperazin-1-yl)but-1-yn-1-yl)quinazolin-6-yl)acrylamide]
